Experimental data reported in patent publication US8518957B2, “Methanocarba adenosine derivatives, pharmaceutical compositions, and method of reducing intraocular pressure” (The United States of America, as represented by the …, priority 2009, dated 2013).
Like-named read-outs stand apart in the source and are kept apart here.

Tests used:
human A1 AR = target: T1, human A1 AR (Homo sapiens, UniProt P30542); assay: Radioligand binding at human A1 AR ([3H]NECA, membranes of CHO cells)
T1 construct: expressed in transfected cells
T1 sequence (P30542 1-326): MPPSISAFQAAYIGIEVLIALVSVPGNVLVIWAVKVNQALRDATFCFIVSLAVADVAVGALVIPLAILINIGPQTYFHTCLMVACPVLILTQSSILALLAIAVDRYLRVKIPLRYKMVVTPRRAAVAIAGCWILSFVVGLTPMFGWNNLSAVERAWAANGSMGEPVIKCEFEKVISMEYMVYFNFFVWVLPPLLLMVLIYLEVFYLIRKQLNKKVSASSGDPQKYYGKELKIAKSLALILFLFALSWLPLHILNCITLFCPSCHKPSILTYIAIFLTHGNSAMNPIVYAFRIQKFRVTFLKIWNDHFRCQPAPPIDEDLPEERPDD
Method: (§1) [^3H](2-[p-(2-Carboxyethyl)phenyl-ethylamino]-5′-N-ethylcarboxamido-adenosine) (37, [^3H]CGS21680, 40.5 Ci/mmol) and [^125I]N^6-(4-amino-3-iodobenzyl)adenosine-5′-N-methyluronamide (38, [^125I]I-AB-MECA, 2200 Ci/mmol) were purchased from Perkin-Elmer Life and Analytical Science (Boston, Mass.). Test compounds were prepared as 5 mM stock solutions in DMSO and stored frozen at −20° C.
(§2) CHO cells stably expressing the recombinant hA1 and hA3Rs, and HEK-293 cells stably expressing the hA2AAR were cultured in Dulbecco's modified Eagle medium (DMEM) and F12 (1:1) supplemented with 10% fetal bovine serum, 100 units/mL penicillin, 100 μg/mL streptomycin, and […] glutamine. In addition, 800 μg/mL geneticin was added to the A2A media, while 500 μg/mL hygromycin was added to the A1 and A3 media. After harvesting, cells were homogenized and suspended in PBS. Cells were then centrifuged at 240 g for 5 min, and the pellet was resuspended in 50 mM Tris-HCl buffer (pH 7.5) containing 10 mM MgCl2. The suspension was homogenized and was then ultra-centrifuged at 14,330 g for 30 min at 4° C. The resultant pellets were resuspended in Tris buffer, incubated with adenosine deaminase (3 units/mL) for 30 min at 37° C. The suspension was homogenized with an electric homogenizer for 10 sec, pipetted into 1 mL vials and then stored at −80° C. until the binding experiments were conducted. The protein concentration was measured using the BCA Protein Assay Kit from Pierce Biotechnology, Inc. (Rockford, Ill.).
(§3) Into each tube in the binding assay was added 50 μL of increasing concentrations of the test ligand in Tris-HCl buffer (50 mM, pH 7.5) containing 10 mM MgCl2, 50 μl, of the appropriate agonist radioligand, and finally 100 μL of membrane suspension. For the A1AR (22 μg of protein/tube) the radioligand used was [^3H]36 (final concentration of 3.5 nM). For the A2AAR (20 μg/tube) the radioligand used was [^3H]37 (10 nM). For the A3AR (21 μg/tube) the radioligand used was [^125I]38 (0.34 nM). Nonspecific binding was determined using a final concentration of 10 μM unlabeled 36 diluted with the buffer. The mixtures were incubated at 25° C. for 60 min in a shaking water bath. Binding reactions were terminated by filtration through Brandel GF/B filters under a reduced pressure using a M-24 cell harvester (Brandel, Gaithersburg, Md.). Filters were washed three times with 3 mL of 50 mM ice-cold Tris-HCl buffer (pH 7.5). Filters for A1 and A2AAR binding were placed in scintillation vials containing 5 mL of Hydrofluor scintillation buffer and counted using a Perkin Elmer Liquid Scintillation Analyzer (Tri-Carb 2810TR). Filters for A3AR binding were counted using a Packard Cobra II γ-counter. The Ki values were determined using GraphPad Prism for all assays.
(§4) [^3H](2-[p-(2-carboxyethyl)phenyl-ethylamino]-5′-N-ethylcarboxamido-adenosine) ([^3H]CGS21680, 40.5 Ci/mmol) and [^125I]N^6-(4-amino-3-iodobenzyl)adenosine-5′-N-methyluronamide ([^125I]I-AB-MECA, 2200 Ci/mmol) were purchased from PerkinElmer. Test compounds were prepared as 5-mM stock solutions in DMSO and stored frozen at −20° C.
(§5) Chinese hamster ovary (CHO) cells were generated by stably expressing the recombinant hA1 and hA3 and human embryonic kidney (HEK) 293 cells stably expressing the hA2AAR in DMEM and F12 (1:1) supplemented with 10% fetal bovine serum, 100 units/mL penicillin, 100 μg/mL streptomycin, and 2 μmol/mL glutamine. 800 μg/mL Geneticin were added to the A2A media and 500 μg/mL hygromycin to the A1 and A3 media. After harvesting the cells, they were homogenized with an electric homogenizer for 10 sec, pipetted them into 1-mL vials, and then stored them at −80° C. until the binding experiments were conducted. The protein concentration was measured with a BCA Protein Assay Kit from Pierce Biotechnology (Rockford, Ill.). […]

hA2AAR = target: T2, hA2AAR (Homo sapiens, UniProt P29274); assay: Radioligand binding at human A2A AR ([3H]CGS21680, membranes of HEK-293 cells)
T2 construct: expressed in transfected cells
Method: as §1, §2, §3, §4, §5

human A3AR = target: T3, human A3AR (Homo sapiens, UniProt P0DMS8); assay: Radioligand binding at human A3 AR ([125I]I-AB-MECA, membranes of CHO cells)
T3 construct: expressed in transfected cells
T3 sequence (P0DMS8 1-318): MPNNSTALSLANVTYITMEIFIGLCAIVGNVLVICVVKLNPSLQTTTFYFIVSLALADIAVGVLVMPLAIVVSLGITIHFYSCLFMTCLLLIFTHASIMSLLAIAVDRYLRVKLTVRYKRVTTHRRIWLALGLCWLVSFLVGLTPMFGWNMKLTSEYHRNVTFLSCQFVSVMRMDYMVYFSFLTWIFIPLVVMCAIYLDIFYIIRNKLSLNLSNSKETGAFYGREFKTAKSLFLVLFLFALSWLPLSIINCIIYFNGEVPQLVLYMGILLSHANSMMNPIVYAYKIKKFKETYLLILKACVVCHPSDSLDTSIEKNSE
Method: Test compounds were prepared as 5 mM stock solutions in DMSO and stored frozen at −20° C.
as §2
as §3, with “For the A1AR (22 μg of protein/tube) the radioligand used was [^3H]36 (final concentration of 3.5 nM).” left out, “For the A3AR (21 μg/tube) the radioligand used was [^125I]38 (0.34 nM).” left out, “Filters for A1 and A2AAR binding were placed in scintillation vials containing 5 mL of Hydrofluor scintillation buffer and counted using a Perkin Elmer Liquid Scintillation Analyzer (Tri-Carb 2810TR).” left out
Test compounds were prepared as 5-mM stock solutions in DMSO and stored frozen at −20° C.
Chinese hamster ovary (CHO) cells were generated by stably expressing the recombinant hA1 and hA3 and human embryonic kidney (HEK) 293 cells stably expressing the hA2AAR in DMEM and F12 (1:1) supplemented with 10% fetal bovine serum, 100 units/mL penicillin, 100 μg/mL streptomycin, and 2 μmol/mL glutamine. 800 μg/mL Geneticin were added to the A2A media and 500 μg/mL hygromycin to the A1 and A3 media. After harvesting the cells, they were homogenized with an electric homogenizer for 10 sec, pipetted them into 1-mL vials, and then stored them at −80° C. until the binding experiments were conducted. The protein concentration was measured with a BCA Protein Assay Kit from Pierce Biotechnology (Rockford, Ill.).
Each tube in the binding assay contained 50 μL of increasing concentrations of the test ligand in Tris-HCl buffer (50 mM, pH 7.5) containing 10 mM MgCl2, 50 μL of the appropriate agonist radioligand, and 100 μL membrane suspension, added sequentially. […] For the A2AAR (20 μg/tube), the radioligand [^3H]CGS21680 was used (−10 nM). […] The mixtures were incubated at 25° C. for 60 min in a shaking water bath. The binding reactions were terminated by filtration through Brandel GF/B filters under a reduced pressure with a M-24 cell harvester (Brandel, Gaithersburg, Md.). Filters were washed three times with 3 mL 50-mM ice-cold Tris-HCl buffer (pH 7.5). […] The filters were counted for A3AR binding with a Packard Cobra II γ-counter (PerkinElmer). The Ki values were determined with GraphPad Prism for all assays.

[1] = Example 7, agonist radioligand [125I]47, read-out: AR Affinity Ki, nM, A3

T2 sequence (P29274 whole entry): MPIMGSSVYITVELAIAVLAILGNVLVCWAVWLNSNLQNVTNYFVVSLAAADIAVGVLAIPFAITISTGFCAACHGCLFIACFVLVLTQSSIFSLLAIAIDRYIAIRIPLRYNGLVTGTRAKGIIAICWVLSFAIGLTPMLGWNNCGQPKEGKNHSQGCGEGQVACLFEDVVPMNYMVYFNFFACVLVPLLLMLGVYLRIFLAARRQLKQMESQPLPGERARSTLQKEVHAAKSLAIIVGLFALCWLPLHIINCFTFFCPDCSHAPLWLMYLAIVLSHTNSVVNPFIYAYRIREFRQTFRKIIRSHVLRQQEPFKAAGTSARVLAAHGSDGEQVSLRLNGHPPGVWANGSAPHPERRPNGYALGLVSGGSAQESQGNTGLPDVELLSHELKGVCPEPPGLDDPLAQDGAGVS

inhibition at 10 µM (human A1 AR)	inhibition at 10 µM (hA2AAR)	Ki (human A3AR; [1])	SMILES	other results
47.7%	7%	87.2 ± 49 nM	C#CCCCCCC#Cc1cccc(CNc2nc(Cl)nc3c2ncn3[C@H]2[C@H](O)[C@H](O)[C@]3(C(=O)NC)C[C@H]23)c1 [Compound 202, (1S,2R,3S,4R,5S)-4-[2-Chloro-6-{3-(1,8-nonadiynyl)}-9H-purin-9-yl]-2,3-dihydroxybicyclo[3.1.0]hexane-1-carboxylic acid N-methylamide]	
38.4%	4.9%	38.1 ± 14.4 nM	CNC(=O)[C@@]12C[C@@H]1[C@@H](n1cnc3c(NCc4cn(C56CC7CC(CC(C7)C5)C6)nn4)nc(Cl)nc31)[C@H](O)[C@@H]2O [Compound 220, (1S,2R,3S,4R,5S)-4-(2-Chloro-6-((1-(adamantyl)-1H-1,2,3-triazol-4-yl)methylamino)-9H-purin-9-yl)-2,3-dihydroxy-N-methylbicyclo[3.1.0]hexane-1-carboxamide]	
		1.9 nM	C#CCNc1nc(Cl)nc2c1ncn2[C@H]1[C@H](O)[C@H](O)[C@]2(C(=O)NC)C[C@H]12 [Compound 218, (1S,2R,3S,4R,5S)-4-(2-Chloro-6-(prop-2-ynylamino)-9H-purin-9-yl)-2,3-dihydroxy-N-methylbicyclo[3.1.0]hexane-1-carboxamide]	
29.5%	18%	521 ± 250 nM	O=[N+]([O-])c1cc(-n2cc(CCCCCC#Cc3cccc(CNc4nc(Cl)nc5c4ncn5[C@H]4[C@H](O)[C@H](O)[C@@H]5C[C@@H]54)c3)nn2)ccc1F [Compound 216, (1R,2R,3S,4R,5S)-4-(2-Chloro-6-(3-(7-(1-(4-fluoro-3-nitrophenyl)-1H-1,2,3-triazol-4-yl)hept-1-ynyl)benzylamino)-9H-purin-9-yl)bicyclo[3.1.0]hexane-2,3-diol]	
			CNC(=O)[C@@]12C[C@@H]1[C@@H](n1cnc3c(NCc4cccc(Cl)c4)nc(C#CCCCc4cn(-c5ccc(F)c([N+](=O)[O-])c5)nn4)nc31)[C@H](O)[C@@H]2O [Compound 10, (1S,2R,3S,4R,5S)-4′-(6-(3-Chlorobenzylamino)-2-(6-(1-(4-fluoro-3-nitrophenyl)-1H-1,2,3-triazol-4-yl)pent-1-ynyl)-9H-purin-9-yl)-2′,3′-dihydroxybicyclo[3.1.0]hexane-1′-carboxylic acid N-methylamide]	% inhibition, A1 (human A1 AR; inhibition of radioligand binding at 10 μM, [3H]36, CHO cells): (10 ± 3%); % inhibition, A2A (hA2AAR; inhibition of radioligand binding at 10 μM, [3H]37, HEK293 cells): (39 ± 4%); Ki (human A3AR; [125I]38, CHO cells, read-out: Affinity (Ki, nM), A3): 26 ± 8.2 nM
38%	19.3%	9.1 ± 1.9 nM	CNC(=O)[C@@]12C[C@@H]1[C@@H](n1cnc3c(NCc4cn(-c5ccc(F)c([N+](=O)[O-])c5)nn4)nc(Cl)nc31)[C@H](O)[C@@H]2O [Compound 219a, (1S,2R,3S,4R,5S)-4-(2-Chloro-6-((1-(4-fluoro-3-nitrophenyl)-1H-1,2,3-triazol-4-yl)methylamino)-9H-purin-9-yl)-2,3-dihydroxy-N-methylbicyclo[3.1.0]hexane-1-carboxamide]	
		47.6 ± 11.3 nM	CNC(=O)[C@@]12C[C@@H]1[C@@H](n1cnc3c(NCc4cccc(C#CCCCCCc5cn(-c6ccc(F)c(N)c6)nn5)c4)nc(Cl)nc31)[C@H](O)[C@@H]2O [Compound 208, (1S,2R,3S,4R,5S)-4-(2-Chloro-6-(3-(7-(1-(4-fluoro-3-amino-phenyl)-1H-1,2,3-triazol-4-yl)hept-1-ynyl)benzylamino)-9H-purin-9-yl)-2,3-dihydroxybicyclo[3.1.0]hexane-1-carboxylic acid-N-methylamide]	
		14.3 ± 2.3 nM	CNC(=O)[C@@]12C[C@@H]1[C@@H](n1cnc3c(NCc4cccc(C#CCCCc5cn(-c6ccc(F)c(N)c6)nn5)c4)nc(Cl)nc31)[C@H](O)[C@@H]2O [Compound 207, (1S,2R,3S,4R,5S)-4-(2-Chloro-6-(3-(5-(1-(4-fluoro-3-amino-phenyl)-1H-1,2,3-triazol-4-yl)pent-1-ynyl)benzylamino)-9H-purin-9-yl)-2,3-dihydroxybicyclo[3.1.0]hexane-1-carboxylic acid-N-methylamide]	
			CNC(=O)[C@@]12C[C@@H]1[C@@H](n1cnc3c(NCc4cccc(I)c4)nc(Cl)nc31)[C@H](O)[C@@H]2O [Compound 127, reference compound]	Ki (human A1 AR; Example 7, agonist radioligand [3H]45, read-out: AR Affinity Ki, nM, A1): 136 ± 22 nM; Ki (hA2AAR; Example 7, agonist radioligand [3H]46, HEK293, read-out: AR Affinity Ki, nM, A2A): 784 ± 97 nM
